This is an account of results in article PMC10487316, “A high‐throughput microfluidic mechanoporation platform to enable intracellular delivery of cyclic peptides in cell‐based assays” (Bioengineering & Translational Medicine, 2023).

Where a SMILES comes first, the peptide text is derived from it. Bridges are numbered along the chain shown (N, C = ends). [ ]: non-standard residue; d: D form. dPhe(4-CF3) = N[C@H](Cc1ccc(C(F)(F)F)cc1)C(=O)O; dTrp(6-F) = N[C@H](Cc1c[nH]c2cc(F)ccc12)C(=O)O; R8 = C=CCCCCCC[C@@](C)(N)C(=O)O; R5 = C=CCCC[C@@](C)(N)C(=O)O; S5 = C=CCCC[C@](C)(N)C(=O)O

Assay [1] relates to CellSensor p53RE-bla HCT116 cell line (p53 response element reporter). The assay is described as follows: HCT116 p53 β-lactamase reporter gene functional assay. The format is cell-based, human. As to conditions: for p53 activation at 10 μM with and without DμVS: 10 μM peptide, unprocessed vs DμVS-processed cells. The method, then: The CellSensor™ p53RE‐bla HCT116 cell line (K1640, Thermo Scientific) was used for functional characterization of p53 pathway activation by DμVS‐delivered peptides. Assay was performed similarly to how previously described.[17] These cells harbor a stable integration of a β‐lactamase reporter gene under control of the p53 response element. Cells were maintained in McCoy's 5A medium (16600‐082, Invitrogen) with 10% dialyzed FBS (26400‐036, Invitrogen), blasticidin (R210‐01, Invitrogen), and penicillin/streptomycin according to the manufacturer's protocol. Peptides were synthesized as previously described.[16], [17] To set up the assay, peptides were first pre‐plated in assay medium (Opti‐MEM supplemented with 0.1 mM non‐essential amino acids [11140‐050, Invitrogen], 1 mM sodium pyruvate [11360‐070, Invitrogen], and penicillin/streptomycin) without FBS on 384‐well plates (Corning 3764) or 96‐well plates (Corning 3603) using a HP D300E digital dispenser (20 μl 384‐well, 50 μl 96‐well). Maximum DMSO concentration used was 0.3% v/v. Cells were washed, resuspended with 0.05% v/v trypsin, spun down for 5 min at 300× g, and resuspended in PBS. Cells were 70‐μm strained and then brought to a final cell density of 3 × 10^6 cells/ml in PBS. Cell suspension was connected to 15 mL P‐CAP of the DμVS system, and 2 mL were used to prime the system. DμVS process was then initiated at 120 psi and 20 μL (384‐well) or 50 μL (96‐well) were dispensed to microplate in wells that were pre‐defined in the Telios software and pre‐loaded with peptides 2× in assay medium. Unprocessed cells were added to the microplate in parallel. After DμVS processing/mixing with peptide, cells were incubated at 37°C for 4 h. β‐lactamase activity was detected using the ToxBLAzer loading kit (K1095, Invitrogen) according to the manufacturer's protocol. Plates were measured using the PHERAstar FSX microplate reader with a LiveBlazer optic module (1400‐G3M‐FI‐410‐530‐460, BMG Labtech). Maximum p53 activity was defined as the β‐lactamase activity induced by 30 μM MP‐081 (meanpos). Percent activation of individual samples (S) was calculated using the following equation, where meanveh represents the mean of vehicle controls: % activation=S−meanveh/meanpos−meanveh×100
Z‐factors were calculated using the formula: Z^′=1−3σpos+3σveh/meanpos−meanveh
Meanpos and σ pos represent the mean and standard deviation, respectively, of the raw ratiometric values for 30 μM MP‐081 and meanveh and σ veh represent the mean and standard deviation of the vehicle controls. Dose–response data EC50 values were determined using the “[Agonist] versus response—Variable slope (four parameters)” algorithm in GraphPad Prism. Single concentration data for expanded peptide set were analyzed using unpaired T‐tests with false discovery rate (FDR, 1.00%) multiple comparisons correction using the two‐stage step‐up (Benjamini, Krieger, and Yekutieli) method. Data were accumulated from at least five independent experimental runs.

The target of a further assay is T1, MDM2 (1–125) protein (Homo sapiens, UniProt Q00987).
T1 construct: made in house
The assay is described as follows: MDM2 binding assay (fluorescence anisotropy competition). As to conditions: competition vs 50 nM FAM-labeled 12/1 peptide, 250 nM MDM2; heat map of Figure 5a. The protocol:
MDM2 protein generation and binding studies were performed as described.[17] […] The competing molecules were then titrated against the complex of the FAM‐labeled peptide and protein. Curve‐fitting was carried out using Prism 4.0 (GraphPad) to determine K D values. Readings were carried out with an Envision Multilabel Reader (PerkinElmer). […] All titrations were carried out in triplicate.

T1 sequence (Q00987 1-125): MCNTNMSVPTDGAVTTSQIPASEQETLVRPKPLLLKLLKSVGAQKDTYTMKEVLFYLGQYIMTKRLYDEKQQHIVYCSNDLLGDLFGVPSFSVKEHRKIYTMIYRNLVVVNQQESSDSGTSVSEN

Regarding `CC(C)C[C@@H](NC(=O)[C@@H](CC(C)C)NC(=O)[C@@H](CCCCN)NC(=O)[C@@H](CCC(=O)O)NC(=O)[C@@H](Cc1ccccc1)NC(=O)[C@@H](CC(N)=O)NC(=O)[C@@H](C)NC(=O)[C@@H](Cc1ccc(O)cc1)NC(=O)[C@@H](Cc1c[nH]c2ccccc12)NC(=O)[C@@H](C)NC(=O)[C@H](N)[C@H](C)O)C(=O)N[C@H](CCCNC(=N)N)C(N)=O` [MP-182, H-DThr-DAla-DTrp-DTyr-DAla-DAsn-DPhe-DGlu-DLys-DLeu-DLeu-DArg-NH2] (H-[dT][dA][dW][dY][dA][dN][dF][dE][dK][dL][dL][dR]-NH2), the “p53 activation at 10 μM with and without DμVS” value in assay [1] was “lack of activity”.

In the case of `CC(=O)N[C@@H](C(=O)N[C@H](C)C(=O)N[C@H](Cc1c[nH]c2ccccc12)C(=O)N[C@H](Cc1ccc(O)cc1)C(=O)N[C@H](C)C(=O)N[C@H](CC(N)=O)C(=O)N[C@H](Cc1ccccc1)C(=O)N[C@H](CCC(=O)O)C(=O)N[C@H](CCCCN)C(=O)N[C@H](CC(C)C)C(=O)N[C@H](CC(C)C)C(=O)N[C@H](CCCNC(=N)N)C(N)=O)[C@H](C)O` [MP-183, Ac-DThr-DAla-DTrp-DTyr-DAla-DAsn-DPhe-DGlu-DLys-DLeu-DLeu-DArg-NH2] (Ac-[dT][dA][dW][dY][dA][dN][dF][dE][dK][dL][dL][dR]-NH2), the “p53 activation at 10 μM with and without DμVS” value in assay [1] is given as “lack of activity”.

`CC(C)C[C@H]1NC(=O)[C@@H](CC(C)C)NC(=O)[C@@](C)(NC(=O)[C@@H](CCC(=O)O)NC(=O)[C@@H](Cc2ccc(C(F)(F)F)cc2)NC(=O)[C@@H](CC(N)=O)NC(=O)[C@@H](C)NC(=O)[C@@H](Cc2ccc(O)cc2)NC(=O)[C@@H](Cc2c[nH]c3cc(F)ccc23)NC(=O)[C@@H](C)NC(=O)[C@H](N)[C@H](C)O)CCCC=CCCC[C@](C)(C(N)=O)NC1=O` [MP-313, H-DThr-DAla-DTrp(6-F)-DTyr-DAla-DAsn-DPhe(4-CF3)-DGlu-S5*-DLeu-DLeu-R5*-NH2] (H-[dT][dA][dTrp(6-F)][dY][dA][dN][dPhe(4-CF3)][dE][S5][dL][dL][R5]-NH2; staple 9-12) showed a dissociation constant Kd at MDM2 (1–125) protein of 1.7 nM. The “p53 activation at 10 μM with and without DμVS” value in assay [1] is on record as “no p53 reporter activity improvement”.

For `CC(=O)N[C@@H](CC(C)C)C(=O)N[C@H](C(=O)N[C@H](Cc1ccccc1)C(=O)N[C@]1(C)CCCCCCC=CCCC[C@@](C)(C(=O)N[C@@H](C)C(=O)N[C@@H](C)C(=O)N[C@@H](C)C(=O)N[C@@H](C)C(=O)N[C@@H](C)C(=O)N[C@H](C)C(N)=O)NC(=O)[C@H](CC(C)C)NC(=O)[C@H](CCC(N)=O)NC(=O)[C@H](C)NC(=O)[C@H](Cc2c[nH]c3ccccc23)NC(=O)[C@H](Cc2ccc(O)cc2)NC(=O)[C@H](CCC(=O)O)NC1=O)[C@@H](C)O` [MP-990, Ac-Leu-Thr-DPhe-R8*-Glu-Tyr-Trp-Ala-Gln-Leu-S5*-Ala-Ala-Ala-Ala-Ala-DAla-NH2] (Ac-LT[dF][R8]EYWAQL[S5]AAAAA[dA]-NH2; staple 4-11), the “p53 activation at 10 μM with and without DμVS” value in assay [1] is “no activity in either format”.

As for “H-Lys(N3)-betaAla-Leu-Thr-Phe-R8*-Glu-Tyr-Trp-Ala-Gln-Cba-S5*-Ser-Ala-Ala-Lys(mPEG24)-NH2 [MP-414]”, the “p53 activation at 10 μM with and without DμVS” value in assay [1] is given as “showed functional activity”. For the same compound, the EC50 in assay [1] (DμVS-based assay format, expanded peptide set, read-out: DμVS-p53 reporter EC50 (validated hits, dose response)) is 1000 nM.
